Consider one substance from patent US12622965B2, “Therapeutical tools and methods using temperature-sensitive receptors for treating blindness” (FRIEDRICH MIESCHER INSTITUTE FOR BIOMEDICAL RESEARCH, priority 2020, dated 2026).

The subject of test [1] is HEK cells expressing TRPV1.459-6x-His, TRPV1.465-6x-His or untagged TRPV1. Briefly: whole cell voltage clamp in HEK cells expressing TRPV1 variants, activated by capsaicin. Type of test: cell-based. The settings on record: TRPV1 agonist capsaicin 2.5 μM bath applied; voltage clamp −60 mV; mean±s.e.m. From the text:
First, they developed a system based on rat TRPV1 channels and gold nanorods with absorption maxima at 915 nm. 915 nm was selected to ensure low water absorption. […] To measure if tagged channels are functional, they performed whole cell voltage clamp in HEK cells expressing TRPV1.459-6x-His, TRPV1.465-6x-His or untagged TRPV1 while activating the channels by TRPV1 agonist capsaicin. The size of evoked currents were similar between TRPV1.465-6x-His and TRPV1 (Mann-Whitney U test, P=0.8551; TRPV1.465-6x-His, 1633±164 pA, […] 15 cells; TRPV1, 1766±276 pA, n=14 cells; mean±s.e.m), but less in TRPV1.459-6x-His (Mann-Whitney U test, P=0.0207; TRPV1.459-6x-His, 976±118 pA, n=19 cells; mean±s.e.m). Therefore, they used TRPV1.465-6x-His (rTRPV1) in subsequent experiments.
For HEK293T cell experiments, cells were maintained at 37° C. on poly-D-lysine/laminin coated coverslips (GG-12-Laminin, Neuvitro) in DMEM supplemented with 10% fetal bovine serum. Cells were transfected with plasmids containing TRP variants using branched PEI. Cells were perfused in oxygenated Ringer's medium containing 110 mM NaCl, 2.5 mM KCl, 1 mM CaCl2, 1.6 mM MgCl2, 10 mM D-glucose and 22 mM NaHCO3 at ˜36° C. for the duration of the experiment. […] Data was analyzed offline using MATLAB (MathWorks).

Test [2] deals with rd1 cones. In words: two-photon calcium imaging of cone cell bodies and axon terminals in wholemount rd1 retinas. It is filed as cell-based, mouse. The text has this: To measure if NIR light drives responses in cones, the inventors performed two-photon calcium imaging of individual cone cell bodies and axon terminals in wholemount rd1 retinas in three conditions: first, rTRPV1 with 915 nm nanorods, second, rTRPV without nanorods and third, 915 nm nanorods without rTRPV1. To detect calcium signals, the inventors genetically targeted the calcium indicator GCaMP6s to cones via AAV that expresses GCaMP6s under a cone-specific promoter (ProA7). GCaMP6s was expressed in 67±5.1% of rd1 cones (n=12,813 cones mm−2, n=8635 GCaMP6s positive cones mm−2, mean±s.d).
Near-infrared (NIR) pulses were produced by two custom-made, single wavelength NIR diode lasers emitting at 915 nm or 980 nm, modelled after J. Yao, B. Liu, and F. Qin. […] Total laser power output, as a function of driving voltage, was measured by placing cannula (CFM14L20) and patch cable (M37L02) output at the entrance of an integrating sphere photodiode power sensor (Thorlabs, S142C) with a PM100D read-out unit. Oscilloscope read-out of laser response time was obtained by applying a step control voltage to the lasers. […]
For two-photon calcium imaging of mouse cone photoreceptors, wild-type and rd1 retinas were isolated in oxygenated Ringer's medium. […] Fluorescence was analyzed semi-online via custom-made software written in Python by Z. Raics (A. Drinnenberg et al. Neuron 99, 117-134 e111 (2018)). […]

On to “TRPV1.465-6x-His: rat TRPV1 channel with 6x-His epitope tag inserted in the first extracellular loop after amino acid 465; delivered by AAV”, for which the “size of evoked currents” value in test [1] stood at 1633±164 pA. In test [2], the “reaction of rTRPV1 expressing cones to light without nanorods” value is “did not react to light”.
